Data as given in patent US20160219881A1, “HERBICIDALLY ACTIVE 2-HALOGEN-4-ALKYNYL-PHENYL-PYRAZOLIDINE-DIONE OR PYRROLIDINE-DIONE DERIVATIVES” (SYNGENTA LIMITED, priority 2013, published 2016).

Experiments:
[1] = tested on: Echinochloa crus-galli (ECHCG); assay: Test 1A glasshouse assay, pre-emergence herbicidal activity; assay type: in vivo; conditions: 312 h, 13 days after application, read-out: Pre-Emergence Herbicidal Activity (% Phytotoxicity) ECHCG
Procedure: (§1) Seeds of a variety of test species are sown in standard soil (usually sandy soil) in pots. After cultivation for one day (pre-emergence) or after 8 days cultivation (post-emergence) under controlled conditions in a glasshouse (at 24/16° C., day/night; 14 hours light; 65% humidity), the plants are sprayed with an aqueous spray solution derived from the formulation of the technical active ingredient (compound) in acetone/water (50:50) solution containing 0.5% Tween 20 (polyoxyethylene sorbitan monolaurate, CAS RN 9005-64-5). The test plants are then grown under controlled conditions in a glasshouse (at 24/16° C., day/night; 14 hours light; 65% humidity) and watered twice daily. 13 days after application of the test compounds, for pre- and post-emergence, the test is evaluated visually for percentage phytotoxicity to each plant (where 100%=total damage to plant; 0%=no damage to plant).
(§2) Alopecurus myosuroides (ALOMY), Setaria faberi (SETFA), Echinochloa crus-galli (ECHCG), Amaranthus retroflexus (AMARE), and Abutilon theophasti Medik. (ABUTH, common English name “velvetleaf”). Of these, Alopecurus myosuroides (ALOMY), Setaria faberi (SETFA), and Echinochloa crus-galli (ECHCG) are grassy monocotyledonous weeds. […]

[2] = tested on: Setaria faberi (SETFA); assay: as above; assay type: in vivo; conditions: 312 h, 13 days after application, read-out: Pre-Emergence Herbicidal Activity (% Phytotoxicity) SET FA
Procedure: as §1
(§3) Alopecurus myosuroides (ALOMY), Setaria faberi (SETFA), Echinochloa crus-galli (ECHCG), Amaranthus retroflexus (AMARE), and Abutilon theophasti Medik. (ABUTH, common English name “velvetleaf”). Of these, Alopecurus myosuroides (ALOMY), Setaria faberi (SETFA), and Echinochloa crus-galli (ECHCG) are grassy monocotyledonous weeds.

[3] = tested on: Amaranthus retroflexus (AMARE); assay: as above; assay type: in vivo; conditions: 312 h, 13 days after application, read-out: Pre-Emergence Herbicidal Activity (% Phytotoxicity) AMARE
Procedure: as §1, §3

[4] = tested on: Abutilon theophasti Medik. (ABUTH); assay: Test 1A glasshouse assay, post-emergence herbicidal activity; assay type: in vivo; conditions: 312 h, 13 days after application, read-out: Post-Emergence Herbicidal Activity (% Phytotoxicity) ABUTH
Procedure: as §1, §3

[5] = tested on: Setaria faberi (SETFA); assay: as above; assay type: in vivo; conditions: 312 h, 13 days after application, read-out: Post-Emergence Herbicidal Activity (% Phytotoxicity) SET FA
Procedure: as §1, §3

[6] = tested on: Amaranthus retroflexus (AMARE); assay: as above; assay type: in vivo; conditions: 312 h, 13 days after application, read-out: Post-Emergence Herbicidal Activity (% Phytotoxicity) AMARE
Procedure: as §1, §3

[7] = tested on: Alopecurus myosuroides (ALOMY); assay: as above; assay type: in vivo; conditions: 312 h, 13 days after application, read-out: Post-Emergence Herbicidal Activity (% Phytotoxicity) ALOMY
Procedure: as §1, §2

[8] = tested on: Echinochloa crus-galli (ECHCG); assay: as above; assay type: in vivo; conditions: 312 h, 13 days after application, read-out: Post-Emergence Herbicidal Activity (% Phytotoxicity) ECHCG
Procedure: as §1, §2

[9] = tested on: Alopecurus myosuroides (ALOMY); assay: Test 1A glasshouse assay, pre-emergence herbicidal activity; assay type: in vivo; conditions: 312 h, 13 days after application, read-out: Pre-Emergence Herbicidal Activity (% Phytotoxicity) ALOMY
Procedure: as §1, §3
(§4) Lolium perenne (LOLPE), Triticum aestivum (TRZAW, winter wheat), Alopecurus myosuroides (ALOMY), Echinochloa crus-galli (ECHCG), and Avena fatua (AVEFA). All these are grassy monocotyledonous weeds and/or (for wheat) grassy crops.

[10] = tested on: Abutilon theophasti Medik. (ABUTH); assay: as above; assay type: in vivo; conditions: 312 h, 13 days after application, read-out: Pre-Emergence Herbicidal Activity (% Phytotoxicity) ABUTH
Procedure: as §1, §3

[11] = tested on: Lolium perenne (LOLPE); assay: Test 1A glasshouse assay, post-emergence herbicidal activity; assay type: in vivo; conditions: 312 h, 250 g/ha, 13 days after application, read-out: Post-Emergence Herbicidal Activity (% Phytotoxicity) LOLPE
Procedure: as §1
(§5) Lolium perenne (LOLPE), Triticum aestivum (TRZAW, winter wheat, variety ‘Hereward’), Alopecurus myosuroides (ALOMY), Echinochloa crus-galli (ECHCG), and Avena fatua (AVEFA). All these are grassy monocotyledonous weeds and/or (for wheat) grassy crops.

[12] = tested on: Triticum aestivum (TRZAW, winter wheat, variety ‘Hereward’); assay: as above; assay type: in vivo; conditions: 312 h, 250 g/ha, 13 days after application, read-out: Post-Emergence Herbicidal Activity (% Phytotoxicity) TRZAW
Procedure: as §1, §5

[13] = tested on: Avena fatua (AVEFA); assay: as above; assay type: in vivo; conditions: 312 h, 250 g/ha, 13 days after application, read-out: Post-Emergence Herbicidal Activity (% Phytotoxicity) AVEFA
Procedure: as §1, §5

[14] = tested on: Triticum aestivum (TRZAW, winter wheat); assay: Test 1A glasshouse assay, pre-emergence herbicidal activity; assay type: in vivo; conditions: 312 h, 250 g/ha, 13 days after application, read-out: Pre-Emergence Herbicidal Activity (% Phytotoxicity) TRZAW
Procedure: as §1, §4

[15] = tested on: Lolium perenne (LOLPE); assay: as above; assay type: in vivo; conditions: 312 h, 250 g/ha, 13 days after application, read-out: Pre-Emergence Herbicidal Activity (% Phytotoxicity) LOLPE
Procedure: as §1, §4

[16] = tested on: Avena fatua (AVEFA); assay: as above; assay type: in vivo; conditions: 312 h, 250 g/ha, 13 days after application, read-out: Pre-Emergence Herbicidal Activity (% Phytotoxicity) AVEFA
Procedure: as §1, §4

[17] = tested on: Johnsongrass (Sorghum halepense); conditions: gibberellic acid mixed with clethodim; cited from earlier work
[18] = tested on: volunteer corn; conditions: gibberellic acid mixed with clethodim; cited from earlier work

SMILES | inhibition at 250 g/ha [1] | inhibition at 250 g/ha [2] | inhibition at 250 g/ha [3] | inhibition at 250 g/ha [4] | inhibition at 250 g/ha [5] | inhibition at 250 g/ha [6] | inhibition at 250 g/ha [7] | inhibition at 250 g/ha [8] | inhibition at 250 g/ha [9] | inhibition at 250 g/ha [10] | inhibition at 30 g/ha [4] | inhibition at 30 g/ha [5] | inhibition at 30 g/ha [6] | inhibition at 30 g/ha [7] | inhibition at 30 g/ha [8] | further results
CC#Cc1ccc(C2C(=O)N(C)N(C)C2=O)c(C)c1 [Compound A2] | 70% | 90% | 10% | 10% | 80% | 100% | 70% | 90% | 80% |  |  |  |  |  |  | 
CC#Cc1cc(OC)c(C2C(=O)N(C)N(C)C2=O)c(OC)c1 [Compound A5] | 90% | 100% | 10% | 0% | 90% | 0% | 90% | 100% | 90% | 0% | 0% | 80% | 0% | 70% | 90% | 
CC#Cc1cc(C)c(C2C(=O)N(CC)N(CC)C2=O)c(C)c1 [Compound A6] | 80% | 70% | 70% | 30% | 80% | 30% | 80% | 80% | 50% | 30% | 30% | 70% | 0% | 20% | 40% | 
CC#Cc1cc(C)c(C2C(=O)N3CCCCN3C2=O)c(C)c1 [Compound A18] | 90% | 90% | 40% | 80% | 90% | 80% | 80% | 100% | 100% | 50% | 70% | 70% | 40% | 50% | 20% | inhibition at 30 g/ha [1]: 60%; inhibition at 30 g/ha [10]: 40%; inhibition at 30 g/ha [2]: 50%; inhibition at 30 g/ha [3]: 20%; inhibition at 30 g/ha [9]: 60%
CC#Cc1cc(C)c(C2C(=O)N3CCOCCN3C2=O)c(C)c1 [Compound A28] | 100% | 100% | 30% | 70% | 100% | 30% | 90% | 100% | 100% | 10% | 60% | 70% | 10% | 60% | 80% | inhibition at 30 g/ha [1]: 80%; inhibition at 30 g/ha [10]: 10%; inhibition at 30 g/ha [2]: 50%; inhibition at 30 g/ha [3]: 20%; inhibition at 30 g/ha [9]: 70%
CC#Cc1cc(C)c(C2C(=O)CN(Cc3ccccn3)C2=O)c(C)c1 (stereo not drawn) [Compound A48, 3-(2,6-dimethyl-4-prop-1-ynyl-phenyl)-1-(2-pyridylmethyl)pyrrolidine-2,4-dione] | 80% |  |  |  |  |  | 90% | 70% | 90% |  |  |  |  |  |  | inhibition at 250 g/ha [11]: 70%; inhibition at 250 g/ha [12]: 30%; inhibition at 250 g/ha [13]: 20%; inhibition at 250 g/ha [14]: 40%; inhibition at 250 g/ha [15]: 80%; inhibition at 250 g/ha [16]: 40%
CC#Cc1cc(C)c(-c2c(OC(C)=O)n(C)n(C)c2=O)c(C)c1 [Compound P2] | 100% | 90% | 70% | 60% | 90% | 30% | 90% | 100% | 90% | 0% | 10% | 40% | 0% | 40% | 80% | 
CC#Cc1cc(C)c(-c2c(OC(=O)C(C)(C)C)n3n(c2=O)CCCCC3)c(C)c1 [Compound P3, [2-(2,6-dimethyl-4-prop-1-ynyl-phenyl)-1-oxo-6,7,8,9-tetrahydro-5H-pyrazolo[1,2-a]diazepin-3-yl]2,2-dimethylpropanoate] | 20% | 70% | 20% | 0% | 70% |  | 50% | 100% | 20% | 10% | 10% | 20% | 0% | 40% | 60% | 
C=C1C[C@]23C[C@@]1(O)CC[C@H]2[C@@]12C=C[C@H](O)[C@@](C)(C(=O)O1)[C@H]2[C@@H]3C(=O)O [gibberellic acid] |  |  |  |  |  |  |  |  |  |  |  |  |  |  |  | control and/or speed of control of Johnsongrass (Sorghum halepense) [17]: increased clethodim's control and/or speed of control; control and/or speed of control of volunteer corn [18]: increased clethodim's control and/or speed of control
